According to patent US12448375B2, “Kinase inhibitors for the treatment of neurodegenerative diseases” (Ohio State Innovation Foundation, priority 2019, dated 2025):
Read-outs that look alike come from different tables or passages of the source.

How the values were obtained:
JNK3 = target: T1, JNK3 (Homo sapiens, UniProt P53779); assay: HotSpot Kinase Assay (Reaction Biology Corp.), anti-JNK3 activity; format: biochemical; conditions: HotSpot radiometric assay, 33P-ATP
T1 construct: purchased Reaction Biology Corp
T1 sequence (P53779 whole entry): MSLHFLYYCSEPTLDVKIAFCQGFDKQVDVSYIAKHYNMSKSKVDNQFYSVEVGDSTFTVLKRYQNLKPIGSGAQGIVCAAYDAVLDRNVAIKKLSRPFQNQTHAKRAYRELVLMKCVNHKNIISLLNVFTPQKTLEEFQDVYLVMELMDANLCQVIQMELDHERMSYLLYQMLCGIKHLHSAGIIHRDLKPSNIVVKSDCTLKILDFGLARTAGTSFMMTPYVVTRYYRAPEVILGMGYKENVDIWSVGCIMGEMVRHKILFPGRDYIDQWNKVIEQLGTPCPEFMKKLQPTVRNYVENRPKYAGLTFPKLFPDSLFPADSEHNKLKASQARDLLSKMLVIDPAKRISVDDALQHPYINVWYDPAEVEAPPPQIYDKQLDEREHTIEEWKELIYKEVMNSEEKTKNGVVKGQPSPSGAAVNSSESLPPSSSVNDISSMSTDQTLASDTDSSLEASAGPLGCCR
Method: (§1) The anti-JNK3 activity of compounds prepared as in the previous examples was evaluated using a Reaction Biology Corp. HotSpot Kinase Assay. Base reaction buffer was 20 mM HEPES (4-(2-hydroxyethyl)-1-piperazineethanesulfonic acid) at pH 7.5 with 10 mM MgCl2, 1 mM EGTA (ethylene glycol-bis(β-aminoethyl ether)-N,N,N′,N′-tetracetic acid), 0.02% Brij™ 35, 0.02 mg/mL BSA (bovine serum albumin), 0.1 mM Na3VO4, 2 mM DTT (dithiothreitol), and 1% DMSO. Required cofactors were added individually to each kinase reaction.
(§2) Activity against related enzymes JNK1 and P38a was further assessed using the same assay.

JNK1 = target: T2, JNK1 (Homo sapiens, UniProt P45983); assay: HotSpot Kinase Assay, JNK1; format: biochemical; conditions: HotSpot radiometric assay, 33P-ATP
T2 construct: purchased Reaction Biology Corp
T2 sequence (P45983 whole entry): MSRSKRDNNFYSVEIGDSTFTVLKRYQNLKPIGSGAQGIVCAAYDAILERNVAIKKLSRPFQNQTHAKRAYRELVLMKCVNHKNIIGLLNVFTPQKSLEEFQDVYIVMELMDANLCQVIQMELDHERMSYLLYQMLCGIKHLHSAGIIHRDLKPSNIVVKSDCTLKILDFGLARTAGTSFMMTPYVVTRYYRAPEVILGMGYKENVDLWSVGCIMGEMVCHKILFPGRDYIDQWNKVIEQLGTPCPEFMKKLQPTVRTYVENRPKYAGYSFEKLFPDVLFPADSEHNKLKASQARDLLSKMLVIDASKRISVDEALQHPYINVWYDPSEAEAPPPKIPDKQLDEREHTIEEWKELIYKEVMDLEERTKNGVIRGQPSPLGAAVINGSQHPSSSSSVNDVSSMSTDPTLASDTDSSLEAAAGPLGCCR
Method: as §1, §2

p38a = target: T3, p38a (Homo sapiens, UniProt Q16539); assay: HotSpot Kinase Assay, P38a; format: biochemical; conditions: HotSpot radiometric assay, 33P-ATP
T3 construct: purchased Reaction Biology Corp
Method: as §1, §2

[1] = system: c-jun phosphorylation in SH-SY5Y human neuroblastoma cell line; assay: In Cell Western Assay, p-c-jun after TNFa; format: cell-based; conditions: SH-SY5Y cells, 25 ng/ml TNFa 1 hour, read-out: Phosphoryl. in SH-SY5Y
Method: SH-SY5Y human neuroblastoma cell line was utilized for the assay. […] Next day, cells were starved of serum for 2 hours by media replacement with serum free DMEM:F12. Cells were then pretreated with inhibitors in DMEM:F12 for 30 min, which was followed by the addition of 25 ng/ml of TNFa for 1 hour. At the end of incubation, cells were fixed with 3% paraformaldehyde for 20 min at room temperature. Following three washes with 0.1 M phosphate buffer (pH 7.0) with shaking during washes, cells were treated with Licor blocking buffer (1:1 dilution in PBS with 0.3% Triton X-100) for 1 hour on a shaker. […] Next day, cells were washed with PBS containing 0.3% Triton X-100 for 5 min each three times with shaking. […] Following three 5 min washes, cells were incubated for nuclei staining with Alexa 680 succinidimyl ester (Thermofisher cat #, A20008) at 1/40,000 dilution for 15 min with shaking and subsequent three 5 min washes. P-c-jun and nuclei signals were detected using Odyssey LiCor Infrared scanner. The p-c-jun signal of each well was normalized to the cell number using nuclei signal.

HGK = HGK (Homo sapiens, UniProt O95819); assay: Enzymatic kinase assay, HGK; format: biochemical
HGK, sequence (O95819 whole entry): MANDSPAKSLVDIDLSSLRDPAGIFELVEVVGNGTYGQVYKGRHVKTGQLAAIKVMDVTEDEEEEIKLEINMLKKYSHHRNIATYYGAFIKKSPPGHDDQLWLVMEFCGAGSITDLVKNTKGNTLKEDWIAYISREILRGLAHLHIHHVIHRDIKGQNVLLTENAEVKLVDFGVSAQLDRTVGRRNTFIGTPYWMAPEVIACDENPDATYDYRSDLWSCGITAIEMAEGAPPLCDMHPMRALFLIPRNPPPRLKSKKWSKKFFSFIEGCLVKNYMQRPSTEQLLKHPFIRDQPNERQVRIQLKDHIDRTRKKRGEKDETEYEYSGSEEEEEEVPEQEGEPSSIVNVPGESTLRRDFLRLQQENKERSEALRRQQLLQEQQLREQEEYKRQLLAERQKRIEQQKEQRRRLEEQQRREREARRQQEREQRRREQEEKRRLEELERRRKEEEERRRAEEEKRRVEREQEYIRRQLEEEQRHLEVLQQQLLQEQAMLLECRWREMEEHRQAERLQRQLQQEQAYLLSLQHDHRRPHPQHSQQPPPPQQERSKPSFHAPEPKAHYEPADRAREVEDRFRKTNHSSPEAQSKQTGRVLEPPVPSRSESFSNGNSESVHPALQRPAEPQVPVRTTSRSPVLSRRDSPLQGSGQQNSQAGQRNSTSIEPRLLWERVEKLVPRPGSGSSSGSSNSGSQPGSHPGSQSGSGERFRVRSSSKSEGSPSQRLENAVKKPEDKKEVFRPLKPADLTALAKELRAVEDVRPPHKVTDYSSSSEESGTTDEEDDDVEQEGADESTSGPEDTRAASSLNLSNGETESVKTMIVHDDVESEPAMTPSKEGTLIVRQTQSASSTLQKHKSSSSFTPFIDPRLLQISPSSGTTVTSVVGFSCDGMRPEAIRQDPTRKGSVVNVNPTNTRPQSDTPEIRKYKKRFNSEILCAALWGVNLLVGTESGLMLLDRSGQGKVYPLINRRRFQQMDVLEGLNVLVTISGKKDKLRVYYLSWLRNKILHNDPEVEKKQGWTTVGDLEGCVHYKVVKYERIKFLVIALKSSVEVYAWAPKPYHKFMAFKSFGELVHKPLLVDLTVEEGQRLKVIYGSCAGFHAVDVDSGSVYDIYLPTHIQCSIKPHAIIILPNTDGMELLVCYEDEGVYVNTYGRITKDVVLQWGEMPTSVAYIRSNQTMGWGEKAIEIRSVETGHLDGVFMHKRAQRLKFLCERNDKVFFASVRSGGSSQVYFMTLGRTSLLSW
Method: [Worded in the source for another target; this target is reported under the same test.] as §1
(§3) Kinase activity was evaluated as follows: • (1) Substrate was dissolved in freshly prepared reaction buffer • (2) Any required cofactors were dissolved in the substrate solution • (3) Kinase was added to the substrate solution followed by gentle mixing • (4) Compounds to be tested dissolved in 100% DMSO were added to the kinase reaction mixture using an Echo550 acoustic liquid handler (Labcyte, San Jose, CA) and incubated for 20 minutes at room temperature • (5) ^33P-ATP was added to the reaction mixture to initiate the kinase reaction • (6) The reaction mixture was incubated for 2 hours at room temperature • (7) Kinase activity was detected by spotting the kinase reaction on Whatman P81 paper, exposing and developing the images using a phosphorimager, and quantifying counts to determine kinase activity

TNIK = TNIK (Homo sapiens, UniProt Q9UKE5); assay: Enzymatic kinase assay, TNIK; format: biochemical
TNIK, sequence (Q9UKE5 whole entry): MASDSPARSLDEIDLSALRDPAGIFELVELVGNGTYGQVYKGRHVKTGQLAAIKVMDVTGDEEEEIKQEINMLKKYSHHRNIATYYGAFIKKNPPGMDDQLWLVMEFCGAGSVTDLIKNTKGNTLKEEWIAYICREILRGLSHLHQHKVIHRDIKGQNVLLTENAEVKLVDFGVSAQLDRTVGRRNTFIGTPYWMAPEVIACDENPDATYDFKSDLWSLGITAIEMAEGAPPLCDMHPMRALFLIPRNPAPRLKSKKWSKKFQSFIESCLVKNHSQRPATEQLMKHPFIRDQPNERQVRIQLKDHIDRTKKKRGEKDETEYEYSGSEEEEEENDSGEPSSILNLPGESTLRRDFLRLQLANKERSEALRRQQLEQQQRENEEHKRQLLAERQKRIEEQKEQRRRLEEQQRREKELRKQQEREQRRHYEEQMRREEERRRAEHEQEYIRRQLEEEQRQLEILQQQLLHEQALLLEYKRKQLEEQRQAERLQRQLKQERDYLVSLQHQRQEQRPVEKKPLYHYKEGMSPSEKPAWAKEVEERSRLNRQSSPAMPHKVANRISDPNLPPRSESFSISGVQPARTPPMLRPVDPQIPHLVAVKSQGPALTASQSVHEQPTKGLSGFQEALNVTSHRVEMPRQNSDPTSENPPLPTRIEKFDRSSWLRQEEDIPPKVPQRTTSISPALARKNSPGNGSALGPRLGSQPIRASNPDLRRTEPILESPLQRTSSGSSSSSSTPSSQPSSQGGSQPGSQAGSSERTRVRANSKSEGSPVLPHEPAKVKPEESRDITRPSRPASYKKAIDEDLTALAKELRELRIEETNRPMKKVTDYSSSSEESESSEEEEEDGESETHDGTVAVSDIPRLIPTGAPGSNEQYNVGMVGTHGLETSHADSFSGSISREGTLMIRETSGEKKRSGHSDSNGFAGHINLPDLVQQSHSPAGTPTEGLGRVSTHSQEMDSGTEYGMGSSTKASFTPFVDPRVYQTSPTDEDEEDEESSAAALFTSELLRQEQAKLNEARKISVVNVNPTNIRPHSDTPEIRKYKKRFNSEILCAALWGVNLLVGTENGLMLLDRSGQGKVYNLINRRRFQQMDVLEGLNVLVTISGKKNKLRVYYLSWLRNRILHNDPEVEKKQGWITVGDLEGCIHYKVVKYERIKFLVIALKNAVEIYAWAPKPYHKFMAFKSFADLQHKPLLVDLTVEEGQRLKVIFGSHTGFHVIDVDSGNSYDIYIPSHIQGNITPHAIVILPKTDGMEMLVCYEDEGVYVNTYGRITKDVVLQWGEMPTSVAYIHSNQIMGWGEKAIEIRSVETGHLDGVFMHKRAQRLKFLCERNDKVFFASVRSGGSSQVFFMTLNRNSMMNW
Method: [Worded in the source for another target; this target is reported under the same test.] as §1, §3

MINK1 = MINK1 (Homo sapiens, UniProt Q8N4C8); assay: Enzymatic kinase assay, MINK1; format: biochemical
MINK1, sequence (Q8N4C8 whole entry): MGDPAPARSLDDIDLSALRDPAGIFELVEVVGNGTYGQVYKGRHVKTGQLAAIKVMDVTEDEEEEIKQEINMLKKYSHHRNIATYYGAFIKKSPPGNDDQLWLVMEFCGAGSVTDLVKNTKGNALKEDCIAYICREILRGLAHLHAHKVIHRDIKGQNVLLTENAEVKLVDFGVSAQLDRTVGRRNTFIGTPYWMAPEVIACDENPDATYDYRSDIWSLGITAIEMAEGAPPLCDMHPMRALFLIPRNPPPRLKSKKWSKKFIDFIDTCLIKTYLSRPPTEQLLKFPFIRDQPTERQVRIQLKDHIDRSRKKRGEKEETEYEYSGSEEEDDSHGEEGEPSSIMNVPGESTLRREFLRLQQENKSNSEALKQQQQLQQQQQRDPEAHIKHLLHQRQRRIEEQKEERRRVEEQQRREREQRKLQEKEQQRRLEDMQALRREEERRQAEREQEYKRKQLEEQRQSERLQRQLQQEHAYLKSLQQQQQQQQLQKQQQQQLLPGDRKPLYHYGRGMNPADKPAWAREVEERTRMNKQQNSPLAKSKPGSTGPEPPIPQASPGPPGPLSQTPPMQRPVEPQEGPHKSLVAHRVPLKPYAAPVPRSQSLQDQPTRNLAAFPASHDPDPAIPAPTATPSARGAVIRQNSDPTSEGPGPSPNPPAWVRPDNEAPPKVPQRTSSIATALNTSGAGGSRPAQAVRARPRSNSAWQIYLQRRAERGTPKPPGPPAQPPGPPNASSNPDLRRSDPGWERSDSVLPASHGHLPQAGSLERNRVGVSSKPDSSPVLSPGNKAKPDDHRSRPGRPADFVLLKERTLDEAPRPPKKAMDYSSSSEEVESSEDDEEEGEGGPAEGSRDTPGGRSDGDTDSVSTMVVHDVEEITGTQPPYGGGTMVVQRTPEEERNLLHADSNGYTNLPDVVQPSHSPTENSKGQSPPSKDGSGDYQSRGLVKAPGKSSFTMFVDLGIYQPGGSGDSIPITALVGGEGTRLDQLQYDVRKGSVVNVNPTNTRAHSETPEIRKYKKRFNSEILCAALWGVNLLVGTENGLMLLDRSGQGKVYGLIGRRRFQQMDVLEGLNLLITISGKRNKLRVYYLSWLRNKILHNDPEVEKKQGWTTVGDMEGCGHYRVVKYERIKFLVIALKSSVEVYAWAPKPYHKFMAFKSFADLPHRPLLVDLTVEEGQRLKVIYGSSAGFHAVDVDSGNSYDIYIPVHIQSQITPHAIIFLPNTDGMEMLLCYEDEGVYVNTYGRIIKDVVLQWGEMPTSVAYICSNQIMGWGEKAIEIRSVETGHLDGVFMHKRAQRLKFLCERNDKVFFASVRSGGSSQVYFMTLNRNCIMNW

DDR1 = DDR1 (Homo sapiens, UniProt Q08345); assay: Enzymatic kinase assay, DDR1; format: biochemical
Method: [Worded in the source for another target; this target is reported under the same test.] as §1, §3

Abl-1 = Abl-1 (Homo sapiens, UniProt P00519); assay: Enzymatic kinase assay, Abl-1; format: biochemical
Method: [Worded in the source for another target; this target is reported under the same test.] as §1, §3

| IC50 (JNK3) | IC50 (JNK1) | IC50 (p38a) | IC50 ([1]; printed as a numeric range) | IC50 [1] | IC50 (HGK) | IC50 (TNIK) | IC50 (MINK1) | IC50 (DDR1) | IC50 (Abl-1) | SMILES |
| --- | --- | --- | --- | --- | --- | --- | --- | --- | --- | --- |
| < 0.2 µM | 0.2 to 1 µM | 0.2 to 1 µM |  |  |  |  |  |  |  | CNC(=O)c1cc(-n2ncc3cc(Nc4cccc(OC)c4Cl)c(C)nc32)cs1 [Compound 81, 4-(5-((2-chloro-3-methoxyphenyl)amino)-6-methyl-1H-pyrazolo[3,4-b]pyridin-1-yl)-N-methylthiophene-2-carboxamide] |
| < 0.2 µM | > 1 µM | 0.2 to 1 µM |  |  | < 0.2 µM | < 0.2 µM | 0.2 to 1 µM | < 0.2 µM | 0.2 to 1 µM | CNC(=O)c1cc(-n2ncc3cc(Nc4c(F)cccc4Cl)c(OC)cc32)cs1 [Compound 91, 4-(5-((2-chloro-6-fluorophenyl)amino)-6-methoxy-1H-indazol-1-yl)-N-methylthiophene-2-carboxamide] |
| < 0.2 µM | 0.2 to 1 µM | 0.2 to 1 µM |  |  |  |  |  |  |  | Cc1nc2c(cnn2-c2csc(C(=O)NC3COC3)c2)cc1Nc1cccc(F)c1Cl [Compound 100, 4-(5-((2-chloro-3-fluorophenyl)amino)-6-methyl-1H-pyrazolo[3,4-b]pyridin-1-yl)-N-(oxetan-3-yl)thiophene-2-carboxamide] |
| < 0.2 µM | > 1 µM | 0.2 to 1 µM |  |  | < 0.2 µM | < 0.2 µM | < 0.2 µM | 0.2 to 1 µM | > 1 µM | CNC(=O)c1cc(-n2ncc3cc(Nc4c(Cl)cccc4OC)ncc32)cs1 [Compound 108, 4-(5-((2-chloro-6-methoxyphenyl)amino)-1H-pyrazolo[3,4-c]pyridin-1-yl)-N-methylthiophene-2-carboxamide] |
| < 0.2 µM | > 1 µM | 0.2 to 1 µM |  |  |  |  |  |  |  | CNC(=O)c1cc(-n2ncc3cc(Nc4c(Cl)cccc4OC)cnc32)cs1 [Compound 109, 4-(5-((2-chloro-6-methoxyphenyl)amino)-1H-pyrazolo[3,4-b]pyridin-1-yl)-N-methylthiophene-2-carboxamide] |
| < 0.2 µM | > 1 µM | 0.2 to 1 µM |  |  | > 1 µM | 0.2 to 1 µM | > 1 µM | > 1 µM | > 1 µM | COc1cccc(Cl)c1Nc1cc2cnn(-c3csc(C(=O)NC4COC4)c3)c2nc1C [Compound 110, 4-(5-((2-chloro-6-methoxyphenyl)amino)-6-methyl-1H-pyrazolo[3,4-b]pyridin-1-yl)-N-(oxetan-3-yl)thiophene-2-carboxamide] |

Second part, the compound before the results:

| SMILES | IC50 (JNK3) | IC50 (JNK1) | IC50 (p38a) | IC50 ([1]; printed as a numeric range) | IC50 [1] | IC50 (HGK) | IC50 (TNIK) | IC50 (MINK1) | IC50 (DDR1) | IC50 (Abl-1) |
| --- | --- | --- | --- | --- | --- | --- | --- | --- | --- | --- |
| CNC(=O)c1cc(-n2ncc3cc(Nc4ccccc4Cl)ncc32)cs1 [Compound 6, 4-(5-((2-chlorophenyl)amino)-1H-pyrazolo[3,4-c]pyridin-1-yl)-N-methylthiophene-2-carboxamide] | < 0.2 µM | > 1 µM | 0.2 to 1 µM | 0.01 to 0.1 µM |  |  |  |  |  |  |
| [2H]C([2H])([2H])N1CC[C@H](NC(=O)c2cc(-n3ncc4cc(Oc5ccccc5Cl)ccc43)cs2)C1 [Compound 9, (S)-4-(5-(2-chlorophenoxy)-1H-indazol-1-yl)-N-(1-(methyl-d3)pyrrolidin-3-yl)thiophene-2-carboxamide] | < 0.2 µM | > 1 µM | > 1 µM |  | > 1 µM |  |  |  |  |  |
| CNC(=O)c1cc(-n2ncc3cc(Nc4cccc(C)c4Cl)ncc32)cs1 [Compound 25, 4-(5-((2-chloro-3-methylphenyl)amino)-1H-pyrazolo[3,4-c]pyridin-1-yl)-N-methylthiophene-2-carboxamide] | < 0.2 µM | 0.2 to 1 µM | 0.2 to 1 µM |  |  | < 0.2 µM | < 0.2 µM | < 0.2 µM |  |  |
| CNC(=O)c1cc(-n2ncc3cc(Nc4ccccc4Cl)c(F)cc32)cs1 [Compound 28, 4-(5-((2-chlorophenyl)amino)-6-fluoro-1H-indazol-1-yl)-N-methylthiophene-2-carboxamide] | < 0.2 µM | 0.2 to 1 µM | < 0.2 µM |  | < 0.2 µM |  |  |  |  |  |
| [2H]C([2H])([2H])N1CC[C@H](NC(=O)c2cc(-n3ncc4cc(Nc5ccccc5Cl)ccc43)cs2)C1 [Compound 30, (S)-4-(5-((2-chlorophenyl)amino)-1H-indazol-1-yl)-N-(1-(methyl-d3)pyrrolidin-3-yl)thiophene-2-carboxamide] | < 0.2 µM | 0.2 to 1 µM | 0.2 to 1 µM |  | < 0.2 µM |  |  |  |  |  |
| [2H]C([2H])([2H])N1CC[C@H](NC(=O)c2cc(-n3ncc4cc(Nc5ccccc5Cl)c(F)cc43)cs2)C1 [Compound 36, (S)-4-(5-((2-chlorophenyl)amino)-6-fluoro-1H-indazol-1-yl)-N-(1-(methyl-d3)pyrrolidin-3-yl)thiophene-2-carboxamide] | < 0.2 µM | 0.2 to 1 µM | 0.2 to 1 µM |  | < 0.2 µM |  |  |  |  |  |
| CNC(=O)c1cc(-n2ncc3nc(Nc4ccccc4Cl)ccc32)cs1 [Compound 50, 4-(5-((2-chlorophenyl)amino)-1H-pyrazolo[4,3-b]pyridin-1-yl)-N-methylthiophene-2-carboxamide] | < 0.2 µM | > 1 µM | 0.2 to 1 µM |  | < 0.2 µM |  |  |  |  |  |
| CN1CCN=C1NC(=O)c1cc(-n2ncc3nc(Nc4ccccc4Cl)ccc32)cs1 [Compound 58, 4-(5-((2-chlorophenyl)amino)-1H-pyrazolo[4,3-b]pyridin-1-yl)-N-(1-methyl-4,5-dihydro-1H-imidazol-2-yl)thiophene-2-carboxamide] | < 0.2 µM | > 1 µM | > 1 µM |  |  | < 0.2 µM | < 0.2 µM | < 0.2 µM | < 0.2 µM | > 1 µM |
| CNC(=O)c1cc(-n2ncc3cc(Nc4c(F)cccc4OC)ccc32)cs1 [Compound 93, 4-(5-((2-fluoro-6-methoxyphenyl)amino)-1H-indazol-1-yl)-N-methylthiophene-2-carboxamide] | < 0.2 µM | > 1 µM | 0.2 to 1 µM |  |  |  |  |  | 0.2 to 1 µM |  |
| CNC(=O)c1cc(-n2ncc3cc(Nc4c(F)cccc4Cl)c(F)cc32)cs1 [Compound 111, 4-(5-((2-chloro-6-fluorophenyl)amino)-6-fluoro-1H-indazol-1-yl)-N-methylthiophene-2-carboxamide] | < 0.2 µM | > 1 µM | 0.2 to 1 µM |  |  |  |  |  |  |  |
| CNC(=O)c1cc(-n2ncc3cc(Nc4c(F)cccc4Cl)c(COC)cc32)cs1 [Compound 152] | < 0.2 µM | 0.2 to 1 µM | 0.2 to 1 µM |  |  |  |  |  |  |  |
